Test results as given in ChEMBL document CHEMBL1138630, “Antioxidant activities of a new lignan and a neolignan from Saururus chinensis” (Bioorg Med Chem Lett, 2004).

Legend:
Cell line [1] = test: Antioxidant activity on copper-induced peroxidation in low-density lipoprotein at 10 uM; expressed as area of absorbance/mm; type: functional, Homo sapiens
Cell line [2] = test: Antioxidant activity on copper-induced peroxidation in low-density lipoprotein at 20 uM; expressed as area of absorbance/mm; type: functional, Homo sapiens
Cell line [3] = test: Concentration required for inhibition of Cu+2-induced peroxidation in low-density lipoprotein of human; type: functional, cell-based
Cell line [4] = test: Effect of compound (0.1 uM) on macrophage-mediated oxidation of LDL was measured by MDA levels in the presence of Cu2+; type: functional, Homo sapiens
Cell line [5] = test: Effect of compound (1 uM) on macrophage-mediated oxidation of LDL was measured by MDA levels in the presence of Cu2+; type: functional, Homo sapiens

IC50 (Cell line [3])	SMILES	Activity (Cell line [1])	Activity (Cell line [2])	Activity (Cell line [4])	Activity (Cell line [5])
3.3 µM	COc1ccc(C[C@H](C)[C@@H](C)Cc2cc(OC)c(O)cc2O)cc1O	6.45 AU/mm	7.66 AU/mm	358.9 nmol/mg LDL	
2.8 µM	CC(C)(Sc1cc(C(C)(C)C)c(O)c(C(C)(C)C)c1)Sc1cc(C(C)(C)C)c(O)c(C(C)(C)C)c1 [PROBUCOL]	4.32 AU/mm	6.7 AU/mm		412.6 nmol/mg LDL
3.8 µM	C/C=C/c1ccc(O[C@@H](C)[C@@H](O)c2ccc(O)c(OC)c2)c(OC)c1 [MACHILIN D]	5.81 AU/mm	6.78 AU/mm	118.3 nmol/mg LDL	
